Assay results published in patent publication US20230159511A1, “TETRAHYDROISOQUINOLINE COMPOUNDS AS NRF2 ACTIVATORS” (C4X Discovery Limited, priority 2020, published 2023).
Read-outs that look alike come from different tables or passages of the source.

Key:
[1] = target: T1, human KEAP1 (N-term, residues 321-609) (Homo sapiens, UniProt Q14145); test: KEAP1 Kelch Fluorescence Polarization (FP) Assay; format: binding; conditions: inhibition of Kelch domain-NRF2 interaction; 2 nM FITC-labelled NRF2 peptide, 25 nM KEAP1, 1 h room temperature; compounds below 10 nM cannot be differentiated
T1 construct: human KEAP1 (N-term, residues 321-609)
T1 sequence (Q14145 321-609): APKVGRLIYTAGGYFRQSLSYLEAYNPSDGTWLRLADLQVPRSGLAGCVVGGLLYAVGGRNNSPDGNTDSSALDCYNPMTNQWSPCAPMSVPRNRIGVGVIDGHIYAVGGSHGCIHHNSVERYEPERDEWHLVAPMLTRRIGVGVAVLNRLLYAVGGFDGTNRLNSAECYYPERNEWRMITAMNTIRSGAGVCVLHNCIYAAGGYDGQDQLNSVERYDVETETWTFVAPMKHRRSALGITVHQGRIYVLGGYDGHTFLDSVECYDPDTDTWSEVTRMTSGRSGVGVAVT
In short: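 FP competition: 2 nM FITC-NRF2 peptide (LDEETGEFL) with 25 nM KEAP1 Kelch domain, pH 8.0 Tris buffer, 0.5% DMSO, 1 h at room temperature; 12-point 1:3 dilutions from 10 μM.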

[2] = system: NRF2 mediated gene NAD(P)H:quinone acceptor oxidoreductase 1 (NQO1) in BEAS-2B cells; test: Beas2B NQO1 mRNA Cell Based Assay; parameters: species or system human; conditions: Homo sapiens
Protocol: Beas2B NQO1 mRNA Cell Based Assay
The up regulation of the NRF2 mediated gene NAD(P)H:quinone acceptor oxidoreductase 1 (NQO1) was measured using the following assay method: BEAS-2B cells (ATCC CRL-9609) were plated in 96-well clear plates at 20,000 cells/well in 75 μL of cell culture media and incubated overnight (37° C., 5% CO2). On day 2, 25 μL of compound or controls were added to the cells for 24 h. On day 3, the medium was aspirated from the plate and the Cells-to-CT™ 1-Step TaqMan® Kit (Ambion A25603) was used to perform expression analysis directly from cultured cells without RNA purification according to the manufacturer's instructions.
Briefly, cells were washed with ice cold PBS and 22.5 μL of room-temperature DNase/Lysis solution was added to the cells and incubated at room temperature for 5 minutes. To stop the reaction, 2.25 μL of stop solution was added to the cell lysate. The samples were diluted 1:5 using nuclease free water and 2.5 μL transferred into the PCR plate. Real-time PCR was performed using the C-1000 Thermal Cycler (Bio-Rad) using human beta actin as the internal control. The cDNA was amplified with a specific primer for NQO1 using the 1-step RT-PCR master mix (Ambion Cells-to-CTTM 1-Step TaqMan® Kit A25603). The primers/probes sets that were used for amplification of cDNA were obtained from TaqMan Gene Expression Assays (Applied Biosystems). The comparative CT (ΔΔCT) relative quantification method was used to calculate the relative mRNA level of the target gene NQO1 as described in the Applied Biosystems Chemistry Guide. The data are expressed as an increase in target gene mRNA compared to vehicle (0.1% DMSO) control and the EC50 values were determined by fitting the data to a four parameter logistic fit using XLfit or XE Runner within ActivityBase.

[3] = BEAS-2B cells, compound for 24 h, increase in NQO1 mRNA compared to vehicle (0.1% DMSO) control, read-out: EC50

Row | Compound | IC50 [1] [nM] | EC50 [2, 3] [nM] | EC50 ([2]; BEAS-2B, 24 h) [nM]
1 | O=C(NCC(F)(F)CO)[C@H]1CCCC[C@H]1C(=O)N1CCc2c(Cl)ccc(OCc3noc4ccccc34)c2[C@H]1CN1CCCC1=O [Example 78, (1S,2R)-2-((S)-8-(benzo[d]isoxazol-3-ylmethoxy)-5-chloro-1-((2-oxopyrrolidin-1-yl)methyl)-1,2,3,4-tetrahydroisoquinoline-2-carbonyl)-N-(2,2-difluoro-3-hydroxypropyl)cyclohexane-1-carboxamide] | 110 | > 10000 | 
2 | CNC(=O)N1CCCC[C@H]1C(=O)N1CCc2c(Cl)ccc(OCc3nnn(C)c3C(F)F)c2[C@H]1CN1CCCC1=O [Example 79, (S)-2-((S)-5-chloro-8-((5-(difluoromethyl)-1-methyl-1H-1,2,3-triazol-4-yl)methoxy)-1-((2-oxopyrrolidin-1-yl)methyl)-1,2,3,4-tetrahydroisoquinoline-2-carbonyl)-N-methylpiperidine-1-carboxamide] | 14 | 336 | 
3 | CNC(=O)[C@H]1CCCC[C@H]1C(=O)N1CCc2c(Cl)ccc(OCc3ccc4ncn(C)c4n3)c2[C@H]1CN1CCCC1=O [Example 80, (1S,2R)-2-((S)-5-chloro-8-((3-methyl-3H-imidazo[4,5-b]pyridin-5-yl)methoxy)-1-((2-oxopyrrolidin-1-yl)methyl)-1,2,3,4-tetrahydroisoquinoline-2-carbonyl)-N-methylcyclohexane-1-carboxamide] | 371 | 2250 | 
4 | CNC(=O)[C@H]1CCCC[C@H]1C(=O)N1CCc2c(Cl)ccc(OCc3nn(C)c4ccccc34)c2[C@H]1CN1CCCC1=O [Example 81, (1S,2R)-2-((S)-5-chloro-8-((1-methyl-1H-indazol-3-yl)methoxy)-1-((2-oxopyrrolidin-1-yl)methyl)-1,2,3,4-tetrahydroisoquinoline-2-carbonyl)-N-methylcyclohexane-1-carboxamide] | 723 | > 10000 | 
5 | CNC(=O)[C@@]1(C)CCCC[C@H]1C(=O)N1CCc2c(Cl)ccc(OCc3noc4ccccc34)c2[C@H]1CN1CCCC1=O [Example 83, (1S,2R)-2-((S)-8-(benzo[d]isoxazol-3-ylmethoxy)-5-chloro-1-((2-oxopyrrolidin-1-yl)methyl)-1,2,3,4-tetrahydroisoquinoline-2-carbonyl)-N,1-dimethylcyclohexane-1-carboxamide] | 12 | 473 | 
6 | Cn1nnc(COc2ccc(Cl)c3c2[C@@H](CN2CCCC2=O)N(C(=O)[C@@H]2CCCCN2C(=O)C(F)F)CC3)c1C(F)F [Example 84] | 161 |  | 1530
7 | CNC(=O)[C@@]1(C)CCC[C@H]1C(=O)N1CCc2c(Cl)ccc(OCc3nnn(C)c3C(F)F)c2[C@H]1CN1CCCC1=O [Example 85, (1S,2R)-2-((S)-5-chloro-8-((5-(difluoromethyl)-1-methyl-1H-1,2,3-triazol-4-yl)methoxy)-1-((2-oxopyrrolidin-1-yl)methyl)-1,2,3,4-tetrahydroisoquinoline-2-carbonyl)-N,1-dimethylcyclopentane-1-carboxamide] | 7.8 | 330 | 
8 | CNC(=O)[C@H]1CCCC[C@H]1C(=O)N1CCc2c(Cl)ccc(OCc3nnc(C)n3C)c2[C@H]1CN1CCCC1=O [Example 86, (1S,2R)-2-((S)-5-chloro-8-((4,5-dimethyl-4H-1,2,4-triazol-3-yl)methoxy)-1-((2-oxopyrrolidin-1-yl)methyl)-1,2,3,4-tetrahydroisoquinoline-2-carbonyl)-N-methylcyclohexane-1-carboxamide] | 14 | 2420 | 
9 | CNC(=O)N1CCOC[C@H]1C(=O)N1CCc2c(Cl)ccc(OCc3nnn(C)c3C(F)F)c2[C@H]1CN1CCCC1=O [Example 87, (S)-3-((S)-5-chloro-8-((5-(difluoromethyl)-1-methyl-1H-1,2,3-triazol-4-yl)methoxy)-1-((2-oxopyrrolidin-1-yl)methyl)-1,2,3,4-tetrahydroisoquinoline-2-carbonyl)-N-methylmorpholine-4-carboxamide] | 39 | 4130 | 
10 | CNC(=O)N1CC2(CC2)C[C@H]1C(=O)N1CCc2c(Cl)ccc(OCc3nnn(C)c3C(F)F)c2[C@H]1CN1CCCC1=O [Example 88, (S)-6-((S)-5-chloro-8-((5-(difluoromethyl)-1-methyl-1 H-1,2,3-triazol-4-yl)methoxy)-1-((2-oxopyrrolidin-1-yl)methyl)-1,2,3,4-tetrahydroisoquinoline-2-carbonyl)-N-methyl-5-azaspiro[2.41]heptane-5-carboxamide] | 67 |  | 7560
11 | CNC(=O)N1CCC[C@H]1C(=O)N1CCc2c(Cl)ccc(OCc3cn(C)nn3)c2[C@H]1CN1CCCC1=O [Example 89, (S)-2-((S)-5-chloro-8-((1-methyl-1H-1,2,3-triazol-4-yl)methoxy)-1-((2-oxopyrrolidin-1-yl)methyl)-1,2,3,4-tetrahydroisoquinoline-2-carbonyl)-N-methylpyrrolidine-1-carboxamide] | 19 | 8720 | 
12 | CNC(=O)[C@@]1(C)CCCC[C@H]1C(=O)N1CCc2c(Cl)ccc(OCc3nnn(C)c3C)c2[C@H]1CN1CCCC1=O [Example 90, (1S,2R)-2-((S)-5-chloro-8-((1,5-dimethyl-1H-1,2,3-triazol-4-yl)methoxy)-1-((2-oxopyrrolidin-1-yl)methyl)-1,2,3,4-tetrahydroisoquinoline-2-carbonyl)-N,1-dimethylcyclohexane-1-carboxamide] | 7.9 | 94 | 
13 | CNC(=O)[C@@]1(C)CCCC[C@H]1C(=O)N1CCc2c(Cl)ccc(OCc3nnn(C)c3C(F)(F)F)c2[C@H]1CN1CCCC1=O [Example 91, (1S,2R)-2-((S)-5-chloro-8-((1-methyl-5-(trifluoromethyl)-1H-1,2,3-triazol-4-yl)methoxy)-1-((2-oxopyrrolidin-1-yl)methyl)-1,2,3,4-tetrahydroisoquinoline-2-carbonyl)-N,1-dimethylcyclohexane-1-carboxamide] | 9.8 | 607 | 
14 | CNC(=O)N1CCCC[C@H]1C(=O)N1CCc2c(Cl)ccc(OCc3cn(C)nn3)c2[C@H]1CN1CCCC1=O [Example 92, (S)-2-((S)-5-chloro-8-((1-methyl-1H-1,2,3-triazol-4-yl)methoxy)-1-((2-oxopyrrolidin-1-yl)methyl)-1,2,3,4-tetrahydroisoquinoline-2-carbonyl)-N-methylpiperidine-1-carboxamide] | 12 | 565 | 
15 | CNC(=O)[C@@]1(C)CCCC[C@H]1C(=O)N1CCc2c(Cl)ccc(OCc3cn(C)nn3)c2[C@H]1CN1CCCC1=O [Example 93, (1S,2R)-2-((S)-5-chloro-8-((1-methyl-1H-1,2,3-triazol-4-yl)methoxy)-1-((2-oxopyrrolidin-1-yl)methyl)-1,2,3,4-tetrahydroisoquinoline-2-carbonyl)-N,1-dimethylcyclohexane-1-carboxamide] | 851 | > 10000 | 
16 | CNC(=O)[C@@]1(C)CCC[C@H]1C(=O)N1CCc2c(Cl)ccc(OCc3nnn(C)c3C(F)F)c2[C@H]1CN1CC2(CC2)CC1=O [Example 94, (1S,2R)-2-((S)-5-chloro-8-((5-(difluoromethyl)-1-methyl-1H-1,2,3-triazol-4-yl)methoxy)-1-((6-oxo-5-azaspiro[2.4]heptan-5-yl)methyl)-1,2,3,4-tetrahydroisoquinoline-2-carbonyl)-N,1-dimethylcyclopentane-1-carboxamide] | 13 | 148 | 
